Consider 62 molecules from patent US12264155B2, “Compounds, pharmaceutical compositions, and methods of preparing compounds and of their use as ATR kinase inhibitors” (Repare Therapeutics Inc., priority 2018, dated 2025).

One may read the IC50 as the concentration at which inhibition is half-maximal.

Chain of ATR/ATRIP (Q13535 whole entry): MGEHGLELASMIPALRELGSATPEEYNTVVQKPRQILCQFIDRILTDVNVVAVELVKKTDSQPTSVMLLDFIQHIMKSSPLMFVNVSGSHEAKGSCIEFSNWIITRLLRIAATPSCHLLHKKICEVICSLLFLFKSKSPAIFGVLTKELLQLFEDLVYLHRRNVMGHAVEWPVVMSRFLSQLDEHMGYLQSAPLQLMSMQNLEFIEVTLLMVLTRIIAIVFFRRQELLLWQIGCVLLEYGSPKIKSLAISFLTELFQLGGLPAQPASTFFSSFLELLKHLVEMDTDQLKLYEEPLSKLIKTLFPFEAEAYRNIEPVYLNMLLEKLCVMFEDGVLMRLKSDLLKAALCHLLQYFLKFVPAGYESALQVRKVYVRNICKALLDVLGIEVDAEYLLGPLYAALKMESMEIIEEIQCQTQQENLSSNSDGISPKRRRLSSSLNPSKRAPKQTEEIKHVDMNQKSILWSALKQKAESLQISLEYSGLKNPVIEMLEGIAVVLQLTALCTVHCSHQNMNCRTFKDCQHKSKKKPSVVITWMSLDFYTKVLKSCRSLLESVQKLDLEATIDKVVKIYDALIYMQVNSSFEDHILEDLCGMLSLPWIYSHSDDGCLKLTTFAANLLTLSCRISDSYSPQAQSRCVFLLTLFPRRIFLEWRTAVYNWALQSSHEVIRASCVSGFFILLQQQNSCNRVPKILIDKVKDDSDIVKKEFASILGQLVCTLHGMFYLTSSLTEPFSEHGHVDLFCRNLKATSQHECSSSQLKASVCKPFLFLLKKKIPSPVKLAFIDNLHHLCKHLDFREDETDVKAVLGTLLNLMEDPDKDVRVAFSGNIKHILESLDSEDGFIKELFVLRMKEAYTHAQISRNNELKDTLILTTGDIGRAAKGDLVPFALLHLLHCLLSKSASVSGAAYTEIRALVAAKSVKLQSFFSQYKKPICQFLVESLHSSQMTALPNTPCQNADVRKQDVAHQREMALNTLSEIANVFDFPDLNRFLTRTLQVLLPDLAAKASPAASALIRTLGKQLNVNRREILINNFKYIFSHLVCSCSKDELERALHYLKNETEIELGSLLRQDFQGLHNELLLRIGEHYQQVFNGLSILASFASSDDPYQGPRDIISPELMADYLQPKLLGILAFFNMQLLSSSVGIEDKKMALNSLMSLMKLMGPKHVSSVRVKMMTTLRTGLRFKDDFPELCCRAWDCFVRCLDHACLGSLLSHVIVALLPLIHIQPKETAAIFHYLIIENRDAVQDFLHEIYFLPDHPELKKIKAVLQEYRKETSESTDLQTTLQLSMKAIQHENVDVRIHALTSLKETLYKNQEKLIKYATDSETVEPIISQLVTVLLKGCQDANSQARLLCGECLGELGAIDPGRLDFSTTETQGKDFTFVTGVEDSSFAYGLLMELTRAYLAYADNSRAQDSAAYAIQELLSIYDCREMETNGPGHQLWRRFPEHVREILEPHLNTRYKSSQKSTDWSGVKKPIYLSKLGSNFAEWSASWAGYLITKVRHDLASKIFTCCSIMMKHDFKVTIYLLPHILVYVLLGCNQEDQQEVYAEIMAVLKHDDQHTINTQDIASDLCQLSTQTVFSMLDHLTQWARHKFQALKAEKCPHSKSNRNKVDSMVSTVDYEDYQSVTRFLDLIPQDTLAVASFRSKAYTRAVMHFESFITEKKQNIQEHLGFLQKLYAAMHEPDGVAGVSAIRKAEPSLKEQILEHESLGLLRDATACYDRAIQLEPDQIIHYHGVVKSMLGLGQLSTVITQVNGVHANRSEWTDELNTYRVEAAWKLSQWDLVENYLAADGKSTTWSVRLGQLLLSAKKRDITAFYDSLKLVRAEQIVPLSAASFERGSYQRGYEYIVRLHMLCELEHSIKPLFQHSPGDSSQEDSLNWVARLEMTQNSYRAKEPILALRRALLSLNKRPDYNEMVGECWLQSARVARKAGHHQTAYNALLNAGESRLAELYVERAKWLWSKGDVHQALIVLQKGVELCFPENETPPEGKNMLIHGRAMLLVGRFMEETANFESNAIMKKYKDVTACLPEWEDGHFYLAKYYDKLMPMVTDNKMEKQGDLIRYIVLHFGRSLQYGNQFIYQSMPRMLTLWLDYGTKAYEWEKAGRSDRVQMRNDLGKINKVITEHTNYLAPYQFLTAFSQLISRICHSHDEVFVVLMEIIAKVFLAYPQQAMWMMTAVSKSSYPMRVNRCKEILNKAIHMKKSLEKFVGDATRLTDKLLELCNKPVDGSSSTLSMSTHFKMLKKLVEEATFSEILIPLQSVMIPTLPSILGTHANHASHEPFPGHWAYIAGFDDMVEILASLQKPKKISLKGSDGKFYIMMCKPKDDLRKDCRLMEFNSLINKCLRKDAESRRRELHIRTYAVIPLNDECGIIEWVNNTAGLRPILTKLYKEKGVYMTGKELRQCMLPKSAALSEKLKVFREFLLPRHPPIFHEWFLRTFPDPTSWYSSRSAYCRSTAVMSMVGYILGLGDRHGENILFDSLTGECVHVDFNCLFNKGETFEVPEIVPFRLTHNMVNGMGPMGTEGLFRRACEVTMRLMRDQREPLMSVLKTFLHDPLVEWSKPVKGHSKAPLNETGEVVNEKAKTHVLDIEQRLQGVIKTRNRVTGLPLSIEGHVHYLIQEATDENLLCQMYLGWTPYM
Chain of ATR/ATRIP (Q8WXE1 whole entry partner): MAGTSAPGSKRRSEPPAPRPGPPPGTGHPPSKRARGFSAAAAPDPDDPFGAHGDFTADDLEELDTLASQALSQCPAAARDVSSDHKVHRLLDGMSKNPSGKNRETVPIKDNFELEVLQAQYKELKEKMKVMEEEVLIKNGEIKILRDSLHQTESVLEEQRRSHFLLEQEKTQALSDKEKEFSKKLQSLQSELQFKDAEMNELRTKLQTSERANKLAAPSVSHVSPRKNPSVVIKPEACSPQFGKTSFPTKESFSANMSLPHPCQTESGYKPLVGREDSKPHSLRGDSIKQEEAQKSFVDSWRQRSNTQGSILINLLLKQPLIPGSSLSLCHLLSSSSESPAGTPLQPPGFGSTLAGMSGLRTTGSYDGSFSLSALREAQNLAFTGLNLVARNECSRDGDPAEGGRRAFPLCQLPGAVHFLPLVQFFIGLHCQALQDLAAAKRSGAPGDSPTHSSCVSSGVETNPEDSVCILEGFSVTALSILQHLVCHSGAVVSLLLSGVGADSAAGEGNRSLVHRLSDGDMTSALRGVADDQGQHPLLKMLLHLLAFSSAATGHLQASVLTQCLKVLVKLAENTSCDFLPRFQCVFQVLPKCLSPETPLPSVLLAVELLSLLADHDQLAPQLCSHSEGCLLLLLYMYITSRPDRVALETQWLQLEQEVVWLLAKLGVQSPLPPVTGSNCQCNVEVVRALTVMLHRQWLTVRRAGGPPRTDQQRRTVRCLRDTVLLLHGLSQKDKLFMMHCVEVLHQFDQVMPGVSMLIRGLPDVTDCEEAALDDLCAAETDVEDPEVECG

The subject of one experiment is ATR kinase (CHK1 phosphorylation at Ser345) in HeLa S3 cells. Put plainly: ATR assay in HeLa S3 cells (CHK1 p-Ser345 AlphaScreen SureFire, gemcitabine). Also: gemcitabine 1.5 µM. The experiment is classed as cell-based. As to conditions: Homo sapiens, HeLa S3, HeLa S3 whole cell assay, 3.5 to 4 hours. As to the method: Media was then replaced by 20 μL per well Opti-MEM no phenol red and 5 μL of serial diluted compounds were added to the assay plate for a final DMSO concentration of 0.5%. […] The plate was incubated at 37° C., 1-5% CO2 for 3.5 to 4 hours.
A general note: Alpha assays give light when donor and acceptor beads are brought close together.
For `C[C@@H]1COCCN1c1cc(C2(O)CCCOCC2)c2cnn(-c3cc[nH]n3)c2n1` (some centres unmarked) [Compound 111], the IC50 is 2.4 nM.

`C[C@@H]1COCCN1c1cc(C2(O)CCN(c3ncccc3C(F)(F)F)CC2)c2cnn(-c3cc[nH]n3)c2n1` [Compound 96]: the IC50 was 20 nM.

For `C[C@@H]1COCCN1c1cc(C2(O)CCN(c3cccc(F)c3)CC2)c2cnn(-c3cc[nH]n3)c2n1` [Compound 93], inhibition was half-maximal at 0.5 nM (IC50).

Take `C[C@@H]1COCCN1c1cc(C2(O)C3CCC2CN(C)C3)c2cnn(-c3cc[nH]n3)c2n1` (some centres unmarked) [Compound 117]: it took 38 nM to reach half-maximal inhibition (IC50).

As to `Cc1ccc(-c2cc(N3CCOC[C@H]3C)nc3c2cnn3-c2cc[nH]n2)c(N)n1` [Compound 139], the IC50 turned out to be 4.2 nM.

`C[C@@H]1COCCN1c1cc(N2CCN(c3ccccn3)CC2)c2cnn(-c3cc[nH]n3)c2n1` [Compound 137] showed an IC50 of 2.1 nM.

Consider `C[C@@H]1COCCN1c1cc(-c2ccccc2S(C)(=O)=O)c2c(=O)[nH]n(-c3ccn[nH]3)c2n1` [Compound 152], for which the IC50 worked out at 22 nM.

Turning to `C[C@@H]1COCCN1c1cc(C2(O)CCC(OC(F)(F)F)CC2)c2cnn(-c3ccn[nH]3)c2n1` (some centres unmarked) [Compound 133], the IC50 was 1.5 nM.

As for `C[C@@H]1COCCN1c1cc([C@]2(O)CCC[C@H](C(F)(F)F)C2)c2cnn(-c3cc[nH]n3)c2n1` [Compound 104], the IC50 was found to be 2.4 nM.

Turning to `COc1ccc(-c2cc(N3CCOC[C@H]3C)nc3c2cnn3-c2cc[nH]n2)c(C(F)(F)F)c1` [Compound 143], the midpoint of inhibition, the IC50, lay at 7.2 nM.

With `COCC1CCC(O)(c2cc(N3CCOC[C@H]3C)nc3c2cnn3-c2cc[nH]n2)CC1` (some centres unmarked) [Compound 102], the IC50 was determined as 0.9 nM.

`C[C@@H]1COCCN1c1cc(N2CCCOCC2=O)c2cnn(-c3cc[nH]n3)c2n1` [Compound 136] had an IC50 of 46 nM.

Regarding `C[C@@H]1COCCN1c1cc(C2(O)CCC3(CC2)COC3)c2cnn(-c3cc[nH]n3)c2n1` [Compound 105], the IC50 was found to be 1.1 nM.

With `C[C@@H]1COCCN1c1cc(-c2ccc(F)cc2C(F)(F)F)c2cnn(-c3cc[nH]n3)c2n1` [Compound 142], the IC50 came to 3.6 nM.

In turn, `C[C@@H]1COCCN1c1cc(-c2cccnc2C(F)(F)F)c2c(=O)[nH]n(-c3ccn[nH]3)c2n1` [Compound 151] returned an IC50 of 9.1 nM.

`C[C@@H]1COCCN1c1cc([C@]2(O)CC[C@]3(CCCO3)CC2)c2cnn(-c3cc[nH]n3)c2n1` [Compound 113] showed a 50% inhibitory concentration (IC50) of 2.1 nM.

In turn, `C[C@@H]1COCCN1c1cc([C@@]2(O)C[C@H]3CC[C@@H](C2)O3)c2cnn(-c3cc[nH]n3)c2n1` (stereo in doubt) [Compound 121] had an IC50 of 0.9 nM.

`C[C@@H]1COCCN1c1cc(C2(O)CCN(CC(F)(F)F)CC2)c2cnn(-c3cc[nH]n3)c2n1` [Compound 120] returned a 50% inhibitory concentration (IC50) of 1.2 nM.

`C[C@@H]1COCCN1c1cc(-c2ccccc2S(=O)(=O)NC2CC2)c2cnn(-c3cc[nH]n3)c2n1` [Compound 124] came in with an IC50 of 63 nM.

In turn, `C[C@@H]1COCCN1c1cc(-c2cccnc2C(N)=O)c2cnn(-c3cc[nH]n3)c2n1` [Compound 129] showed an IC50 of 11 nM.

The molecule `C[C@@H]1COCCN1c1cc(C2(O)CCC3(CCOCC3)CC2)c2cnn(-c3cc[nH]n3)c2n1` [Compound 110] gave an IC50 of 0.7 nM.

The molecule `C[C@@H]1COCCN1c1cc(-c2ccc(C(F)(F)F)nc2N)c2cnn(-c3cc[nH]n3)c2n1` [Compound 138] came in with an IC50 of 9.4 nM.

`C[C@@H]1COCCN1c1cc(-c2cccnc2N)c2cnn(-c3cc[nH]n3)c2n1` [Compound 125, (R)-3-(6-(3-methylmorpholino)-1-(1H-pyrazol-3-yl)-1H-pyrazolo[3,4-b]pyridin-4-yl)pyridin-2-amine]: the IC50 was determined as 11 nM.

Turning to `C[C@@H]1COCCN1c1cc(-c2ccccc2C(C)(C)O)c2cnn(-c3cc[nH]n3)c2n1` [Compound 128], the IC50 amounted to 2.4 nM.

On to `C[C@@H]1COCCN1c1cc(C2(O)CCN(c3ccc(Cl)cc3)CC2)c2cnn(-c3cc[nH]n3)c2n1` [Compound 94], for which the IC50 is 1.9 nM.

`C[C@@H]1COCCN1c1cc(-c2cccnc2C(F)(F)F)c2cnn(-c3cc[nH]n3)c2n1` [Compound 144] came in with an IC50 of 1.3 nM.

Regarding `C[C@@H]1COCCN1c1cc(C2(O)CCN(C(C)(C)C)CC2)c2cnn(-c3cc[nH]n3)c2n1` [Compound 109], the IC50 was determined as 17 nM.

Molecule `C[C@@H]1COCCN1c1cc(C2(O)CC(C)(C)N(C)C(C)(C)C2)c2cnn(-c3cc[nH]n3)c2n1` [Compound 119] displayed an IC50 of 14 nM.

`C[C@@H]1COCCN1c1cc(-c2cccc(C(F)(F)F)c2C(N)=O)c2cnn(-c3cc[nH]n3)c2n1` [Compound 131] displayed an IC50 of 1.8 nM.

On to `CC(C)N1CCC(O)(c2cc(N3CCOC[C@H]3C)nc3c2cnn3-c2cc[nH]n2)CC1` [Compound 118], for which 6.4 nM corresponded to half-maximal inhibition (IC50).

In turn, `C[C@@H]1COCCN1c1cc(C2(O)CCN(c3ccc(C#N)cc3)CC2)c2cnn(-c3cc[nH]n3)c2n1` [Compound 95] registered an IC50 of 2 nM.

In the case of `C[C@@H]1COCCN1c1cc([C@]2(O)CC[C@@](C)(C#N)CC2)c2cnn(-c3cc[nH]n3)c2n1` [Compound 106], the IC50 came to 3.3 nM.

`C[C@@H]1COCCN1c1cc(-c2cccc(Cl)c2C(N)=O)c2cnn(-c3cc[nH]n3)c2n1` [Compound 130] came in with an IC50 of 13 nM.

On to `C[C@@H]1COCCN1c1cc([C@]2(O)CC[C@H](c3ccccc3)CC2)c2cnn(-c3cc[nH]n3)c2n1` [Compound 97], for which the IC50 worked out at 0.9 nM.

With `C[C@@H]1COCCN1c1cc([C@]2(O)CC[C@@H](c3ccccc3)CC2)c2cnn(-c3cc[nH]n3)c2n1` [Compound 98], half-maximal inhibition (IC50) was put at 1.2 nM.

`C[C@@H]1COCCN1c1cc(C2(O)CCN(c3ccc(F)cc3)CC2)c2cnn(-c3cc[nH]n3)c2n1` [Compound 116] returned an IC50 of 1.2 nM.

For `C[C@@H]1COCCN1c1cc(-c2ccccc2C(F)(F)F)c2c(=O)[nH]n(-c3ccn[nH]3)c2n1` [Compound 150, 6-[(3R)-3-methylmorpholin-4-yl]-1-(1H-pyrazol-5-yl)-4-[2-(trifluoromethyl)phenyl]-2H-pyrazolo[3,4-b]pyridin-3-one], half-maximal inhibition (IC50) was put at 7.8 nM.

A further experiment addresses ATR/ATRIP (Homo sapiens (Human), UniProt Q13535). The experiment in a line: ATR/ATRIP enzymatic assay (AlphaScreen, phosphorylation of p53).
Settings: not given
On to `C[C@@H]1COCCN1c1cc(C(C)(C)C#N)c2cnn(Cc3ccn[nH]3)c2n1` [Compound 66], for which the IC50 turned out to be 448 nM.

The experiment is the same for the next values; noted with them: read-out: ATR IC50; recombinant ATR/ATRIP 0.63 nM, 25 nM GST-p53, 3 μM ATP, 1 hour room temperature.
As for `C[C@@H]1COCCN1c1cc(C2(C#N)CCSCC2)c2cnn(-c3cc[nH]n3)c2n1` [Compound 74], the IC50 was 8 nM.

With `C=Cc1nn(-c2cc[nH]n2)c2nc(N3CCOC[C@H]3C)cc(C(C)(C)C#N)c12` [Compound 71], the IC50 is less than 5 nM.

With `C[C@@H]1COCCN1c1cc(C2(C#N)CCNCC2)c2cnn(-c3cc[nH]n3)c2n1` [Compound 83], the IC50 came out at 22 nM.

Take `C[C@@H]1COCCN1c1cc(S(C)(=O)=O)c2cnn(-c3cc[nH]n3)c2n1` [Compound 44]: the IC50 stood at 27 nM.

As to `C[C@@H]1COCCN1c1cc(C(C)(C)C(N)=O)c2cnn(-c3cc[nH]n3)c2n1` [Compound 4, (R)-2-methyl-2-(6-(3-methylmorpholino)-1-(1H-pyrazol-3-yl)-1H-pyrazolo[3,4-b]pyridin-4-yl)propanamide], the IC50 is 56 nM.

Turning to `C[C@@H]1COCCN1c1cc(C(C)(C)O)c2ccn(-c3cc[nH]n3)c2n1` [Compound 10], the IC50 amounted to 1600 nM.

Regarding `C[C@@H]1COCCN1c1cc(-c2nncs2)c2cnn(-c3cc[nH]n3)c2n1` [Compound 72], the IC50 came out at 94 nM.

Take `C[C@@H]1COCCN1c1cc(N2CCNC(=O)C2)c2cnn(-c3ccn[nH]3)c2n1` [Compound 87]: the IC50 worked out at 10 nM.

For `C[C@@H]1COCCN1c1cc(C2(C#N)CC2)c2ccn(-c3cc[nH]n3)c2n1` [Compound 29], the IC50 was 580 nM.

Regarding `C[C@@H]1COCCN1c1cc(-c2cccs2)c2ccn(-c3cc[nH]n3)c2n1` [Compound 41], the IC50 was greater than 10000 nM.

For the molecule `C[C@@H]1COCCN1c1cc(C2(C#N)CCN(C(=O)OC(C)(C)C)C2)c2cnn(-c3cc[nH]n3)c2n1` (some centres unmarked) [Compound 80], the IC50 came to 6 nM.

For the molecule `COc1cc(-c2cc(N3CCOC[C@H]3C)nc3c2ccn3-c2cc[nH]n2)ccn1` [Compound 39], the IC50 is greater than 10000 nM.

`C[C@@H]1COCCN1c1cc(-c2ccccc2[S+](C)[O-])c2ccn(-c3cc[nH]n3)c2n1` (some centres unmarked) [Compound 20]: the IC50 is 229 nM.

In the case of `C[C@@H]1COCCN1c1cc(C2(O)CCC(C)(C#N)CC2)c2cnn(-c3cc[nH]n3)c2n1` (some centres unmarked) [Compound 59], the IC50 was 10 nM.

`C[C@@H]1COCCN1c1cc(C2(C#N)CCC2)c2cnn(-c3cc[nH]n3)c2n1` [Compound 27]: the IC50 was 135 nM.

For the molecule `C[C@@H]1COCCN1c1cc(-c2ccncc2)c2ccn(-c3cc[nH]n3)c2n1` [Compound 15], the IC50 is 1870 nM.

On to `C[C@@H]1COCCN1c1cc(-c2ccc(S(C)(=O)=O)cc2)c2cnn(-c3ccn[nH]3)c2n1` [Compound 89], for which the IC50 was determined as 31 nM.

Turning to `C[C@@H]1COCCN1c1cc(C2(C#N)CNC2)c2cnn(-c3cc[nH]n3)c2n1` [Compound 82], the IC50 was 17 nM.

As for `C[C@@H]1COCCN1c1cc(Nc2cccnc2)c2ccn(-c3cc[nH]n3)c2n1` [Compound 17], the IC50 amounted to 1210 nM.

Regarding `C[C@@H]1COCCN1c1cc(C2(C#N)CN(C(=O)OC(C)(C)C)C2)c2cnn(-c3cc[nH]n3)c2n1` [Compound 79], the half-maximal inhibitory concentration (IC50) was found to be 30 nM.

Take `C[C@@H]1COCCN1c1cc(C2(S(C)(=O)=O)CC2)c2ccn(-c3cn[nH]c3)c2n1` [Compound 38]: the IC50 was greater than 1000 nM.

With `C[C@@H]1COCCN1c1cc(-c2ccnn2C)c2ccn(-c3cc[nH]n3)c2n1` [Compound 34], the IC50 amounted to 451 nM.

Consider `C[C@@H]1COCCN1c1cc(C(C)(C)C#N)c2cnn(-c3n[nH]cc3F)c2n1` [Compound 68], for which the IC50 was 1340 nM.

As for `COC(C)(C)c1cc(N2CCOC[C@H]2C)nc2c1ccn2-c1cc[nH]n1` [Compound 30], the IC50 turned out to be 284 nM.
